Experimental data: ChEMBL document CHEMBL4765314, “Rational design and biological evaluation of gemfibrozil modified Xenopus GLP-1 derivatives as long-acting hypoglycemic agents” (Eur J Med Chem, 2020)
Calls of active or inactive are those of the source. The rule behind the calls is not given here. Starred links: 1 amine or outer side, 2 acyl side, 3 side chain; linkers in the order of their positions; H or OH if unused. Residues, ends and D or L forms follow the SMILES beside them. Groups on a side chain read outwards from the residue. *: point of attachment. X1 = Cc1ccc(C)c(OCCCC(C)(C)C(=O)OCC(=O)NCCCCCCCCCC(NC(=O)COC(=O)C(C)(C)CCCOc2cc(C)ccc2C)C(=O)*)c1; γGlu = O=C(O)[C@H](CCC(=O)[*:2])N[*:1]

Columns and labels:
[1] = Tmax in Sprague-Dawley rat at 50 nmol/kg, sc measured up to 24 hrs by LC-MS/MS analysis; type: ADME, organism-based; details: in vivo
Mus musculus [2] = experiment: Reduction in serum triglyceride in C57BL/6 mouse model of high-fat diet induced obesity at 25 nmol/kg, sc administered once daily for 21 days; type: functional, organism-based; details: time 21.0 day
Mus musculus [3] = experiment: Hypoglycemic activity in non-fasted db/db […] mouse assessed as reduction in blood glucose level at 25 nmol/kg, ip dosed 30 mins before glucose challenge measured up to 120 mins by OGTT method; type: functional, organism-based
[4] = Half life in Sprague-Dawley rat at 50 nmol/kg, sc measured up to 24 hrs by LC-MS/MS analysis; type: ADME, organism-based; details: in vivo
Mus musculus [5] = experiment: Gastric emptying in 6 hrs fasted ICR mouse assessed as reduction in blood paracetamol concentration at 25 nmol/kg, ip dosed 30 mins before paracetamol dosing measured up to 60 mins by LC-MS/MS analysis; type: functional, organism-based; details: time 90.0 min
Mus musculus [6] = experiment: Increase in serum HDL level in C57BL/6 mouse model of high-fat diet induced obesity at 25 nmol/kg, sc administered once daily for 21 days; type: functional, organism-based; details: time 21.0 day
Mus musculus [7] = experiment: Hypoglycemic activity in db/db mouse assessed as decrease in glucose excursion at 25 nmol/kg, ip dosed 30 mins before glucose challenge and measured up to 180 mins by OGTT method; type: functional, organism-based; details: time 210.0 min
[8] = Inhibition of solid-phase gastric emptying in 12 hrs fasted ICR mouse assessed reduction in gastric emptying rate at 25 nmol/kg, ip allowed for food intake 1 hrs and measured after 4 hrs […]; type: functional; parameters: scale not given: the % may be the effect or the level left
[9] = Hepatotoxicity in ICR mouse assessed as effect on aspartate aminotransferase level at 1000 nmol/kg, sc administered once daily for 2 weeks; type: toxicity, organism-based; details: in vivo, 336 h
Mus musculus [10] = experiment: Hypoglycemic activity in non-fasted db/db […] mouse assessed as increase in duration of time under normoglycemic state at 25 nmol/kg, sc by OGTT method relative to liraglutide; type: functional, organism-based
Mus musculus [11] = experiment: Improvement in fasted blood glucose level in db/db mouse at 25 nmol/kg, sc administered once daily for 21 days; type: functional, organism-based; details: time 21.0 day
Mus musculus [12] = experiment: Inhibition of fat mass gain in normal chow diet fed C57BL/6 mouse at 25 nmol/kg, sc administered once daily for 21 days; type: functional, organism-based; details: time 21.0 day
Mus musculus [13] = experiment: Reduction in body fat content in C57BL/6 mouse model of high-fat diet induced obesity at 25 nmol/kg, sc administered once daily for 21 days relative to control; type: functional; parameters: scale not given: the % may be the effect or the level left; details: time 21 day
Mus musculus [14] = experiment: Reduction in body weight in C57BL/6 mouse model of diet induced obesity at 25 nmol/kg, sc administered once daily for 21 days relative to control; type: functional; parameters: scale not given: the % may be the effect or the level left; details: time 21 day
Mus musculus [15] = experiment: Improvement in HbA1c level in db/db mouse at 25 nmol/kg, sc administered once daily for 21 days; type: functional, organism-based; details: time 21.0 day
[16] = Hepatotoxicity in ICR mouse assessed as effect on alanine aminotransferase level at 1000 nmol/kg, sc administered once daily for 2 weeks; type: toxicity, organism-based; details: in vivo, 336 h
Mus musculus [17] = experiment: Reduction in body weight gain in db/db mouse at 25 nmol/kg, sc administered once daily for 21 days; type: functional, organism-based; details: time 21.0 day
Albumin = Albumin (Homo sapiens, UniProt P02768); experiment: Binding affinity to human serum albumin assessed as retention factor by HPAC method; type: ADME
Mus musculus [18] = experiment: Insulinotropic activity in db/db mouse assessed as improvement in plasma insulin level at 25 nmol/kg, ip dosed 30 mins before glucose challenge and measured up to 60 mins by ELISA; type: functional, organism-based; details: time 90.0 min
Mus musculus [19] = experiment: Hypoglycemic activity in non-fasted sc dosed db/db mouse assessed as reduction in blood glucose treated 30 mins before glucose challenge and measured up to 48 hrs by OGTT method; type: functional, organism-based; details: dose 25-100 nmol/kg, time min <=2910
[20] = Renal toxicity in ICR mouse assessed as effect on serum creatinine level at 1000 nmol/kg, sc administered once daily for 2 weeks; type: organism-based; details: in vivo, 336 h
[21] = molecular target: Glucagon-like peptide 1 receptor (Homo sapiens, UniProt P43220); experiment: Agonist activity at human GLP-1R expressed in HEK293 cells assessed as stimulation of cAMP accumulation incubated for 60 mins by HTRF assay; type: functional, cell-based
Mus musculus [22] = experiment: Anorectic activity in C57BL/6 mouse model of diet induced obesity assessed as reduction in food intake at 25 nmol/kg, sc administered once daily for 21 days relative to control; type: functional, organism-based; details: time 21.0 day
Mus musculus [23] = experiment: Reduction in serum LDL level in C57BL/6 mouse model of high-fat diet induced obesity at 25 nmol/kg, sc administered once daily for 21 days; type: functional, organism-based; details: time 21.0 day
[24] = Renal toxicity in ICR mouse assessed as effect on blood urea nitrogen level at 1000 nmol/kg, sc administered once daily for 2 weeks; type: organism-based; details: in vivo, 336 h
Mus musculus [25] = experiment: Anorectic effect in normal chow diet fed C57BL/6 mouse assessed as reduction in food intake at 25 nmol/kg, sc administered once daily for 21 days; type: functional, organism-based; details: time 21.0 day
Mus musculus [26] = experiment: Hypoglycemic activity in 12 hrs fasted ICR mouse assessed as reduction in blood glucose level at 25 nmol/kg, ip dosed 30 mins before glucose challenge measured up to 120 mins by OGTT method; type: functional, organism-based; details: time 150.0 min
Mus musculus [27] = experiment: Hypoglycemic activity in db/db mouse assessed as improvement in glucose tolerance at 25 nmol/kg, ip dosed 30 mins before glucose challenge and measured up to 180 mins by OGTT method; type: functional, organism-based; details: time 210.0 min
Mus musculus [28] = experiment: Reduction in serum total cholesterol in C57BL/6 mouse model of high-fat diet induced obesity at 25 nmol/kg, sc administered once daily for 21 days; type: functional, organism-based; details: time 21.0 day
Mus musculus [29] = experiment: Improvement in glucose tolerance in standard chow diet fed C57BL/6 mouse at 25 nmol/kg, sc administered once daily for 21 days; type: functional, organism-based; details: time 21.0 day
Mus musculus [30] = experiment: Hypoglycemic activity in normal chow diet fed C57BL/6 mouse assessed as fasting blood glucose at 25 nmol/kg, sc administered once daily for 21 days; type: functional, organism-based; details: time 21.0 day
[31] = Stability in Sprague-Dawley rat plasma assessed as half life at 1000 ng/ml measured up to 48 hrs under shaking condition by LC-MS/MS analysis; type: ADME, cell-free
Mus musculus [32] = experiment: Hypoglycemic activity in non-fasted db/db mouse assessed as duration of time during which decrease in blood glucose concentration is observed at 25 nmol/kg, sc by OGTT method; type: functional
Mus musculus [33] = experiment: Improvement in glucose tolerance in db/db mouse assessed as time for superior hypoglycemic effect by measuring glucose AUC at 25 nmol/kg, sc administered once daily for 42 days by OGTT; type: functional; details: time 42 day
Mus musculus [34] = experiment: Reduction in HbA1c level in db/db mouse at 25 nmol/kg, sc administered once daily for 42 days by OGTT; type: functional, organism-based; details: time 42.0 day
Mus musculus [35] = experiment: Effect in normal chow diet fed C57BL/6 mouse assessed as reduction in body weight increase at 25 nmol/kg, sc administered once daily for 21 days (reference value: 10.8%); type: functional; parameters: scale not given: the % may be the effect or the level left; details: time 21 day
Mus musculus [36] = experiment: Hypoglycemic activity in 16 hrs fasted db/db mouse assessed as reduction in blood glucose level at 25 nmol/kg, ip treated 30 mins before glucose challenge and measured at 0 to 12 hrs by multiple OGTT; type: functional, organism-based; details: time 750.0 min
Mus musculus [37] = experiment: Improvement in glucose tolerance in db/db mouse at 25 nmol/kg, sc administered once daily for 42 days by OGTT; type: functional, organism-based; details: time 42.0 day
Mus musculus [38] = experiment: Anorectic activity in non-fasted sc dosed db/db mouse assessed as reduction in food intake treated 30 mins before glucose challenge and measured up to 48 hrs; type: functional, organism-based; details: time min <=2910

Chain of Albumin (P02768 whole entry): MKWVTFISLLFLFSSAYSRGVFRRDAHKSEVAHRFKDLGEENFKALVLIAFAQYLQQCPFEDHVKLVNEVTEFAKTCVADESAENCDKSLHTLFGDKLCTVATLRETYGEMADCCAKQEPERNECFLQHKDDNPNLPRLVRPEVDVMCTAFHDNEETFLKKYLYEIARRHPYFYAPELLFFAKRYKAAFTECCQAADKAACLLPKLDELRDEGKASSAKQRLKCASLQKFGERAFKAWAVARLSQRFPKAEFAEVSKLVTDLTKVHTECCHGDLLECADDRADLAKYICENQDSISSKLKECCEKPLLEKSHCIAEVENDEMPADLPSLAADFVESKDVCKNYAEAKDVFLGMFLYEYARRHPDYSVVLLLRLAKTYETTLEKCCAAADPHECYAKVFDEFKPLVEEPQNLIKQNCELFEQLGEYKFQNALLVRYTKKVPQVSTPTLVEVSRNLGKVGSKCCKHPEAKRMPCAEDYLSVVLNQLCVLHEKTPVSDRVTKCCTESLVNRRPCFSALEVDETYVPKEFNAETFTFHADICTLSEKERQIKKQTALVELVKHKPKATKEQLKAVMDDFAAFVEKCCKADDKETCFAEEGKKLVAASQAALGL
Chain of Glucagon-like peptide 1 receptor (P43220 whole entry): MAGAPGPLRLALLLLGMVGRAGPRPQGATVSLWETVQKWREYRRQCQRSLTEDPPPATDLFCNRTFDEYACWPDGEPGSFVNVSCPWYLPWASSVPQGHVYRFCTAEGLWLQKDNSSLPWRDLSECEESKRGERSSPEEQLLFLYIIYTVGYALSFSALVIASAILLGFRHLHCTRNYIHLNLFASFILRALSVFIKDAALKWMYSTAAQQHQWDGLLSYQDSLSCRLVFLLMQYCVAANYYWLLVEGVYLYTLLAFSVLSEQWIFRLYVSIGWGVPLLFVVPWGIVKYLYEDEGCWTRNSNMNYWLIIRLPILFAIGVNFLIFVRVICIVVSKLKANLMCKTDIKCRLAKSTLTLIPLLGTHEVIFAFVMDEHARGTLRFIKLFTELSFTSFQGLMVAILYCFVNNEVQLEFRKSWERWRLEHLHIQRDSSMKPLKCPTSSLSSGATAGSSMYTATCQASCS

Structure (SMILES): CC[C@H](C)[C@H](NC(=O)[C@H](CC(C)C)NC(=O)[C@H](Cc1c[nH]c2ccccc12)NC(=O)[C@H](CCC(=O)O)NC(=O)[C@@H](NC(=O)[C@H](Cc1ccccc1)NC(=O)[C@H](CCC(=O)O)NC(=O)[C@H](CCCCNC(=O)CC[C@H](NC(=O)C(CCCCCCCCCNC(=O)COC(=O)C(C)(C)CCCOc1cc(C)ccc1C)NC(=O)COC(=O)C(C)(C)CCCOc1cc(C)ccc1C)C(=O)O)NC(=O)[C@H](C)NC(=O)[C@H](C)NC(=O)[C@H](CCC(=O)O)NC(=O)[C@H](CCC(=O)O)NC(=O)[C@H](CCC(=O)O)NC(=O)[C@H](CC(C)C)NC(=O)[C@H](Cc1ccc(O)cc1)NC(=O)[C@H](CCC(=O)O)NC(=O)[C@@H](NC(=O)[C@@H](NC(=O)[C@H](CC(=O)O)NC(=O)[C@H](CC(N)=O)NC(=O)[C@@H](NC(=O)[C@H](Cc1ccc(O)cc1)NC(=O)[C@@H](NC(=O)CNC(=O)[C@H](CCC(=O)O)NC(=O)CNC(=O)[C@@H](N)Cc1cnc[nH]1)[C@@H](C)O)[C@@H](C)O)C(C)C)[C@@H](C)O)[C@@H](C)CC)C(=O)N[C@@H](CCCCN)C(=O)NCC(=O)N[C@@H](CCCCN)C(=O)N1CCC[C@H]1C(=O)N[C@@H](CO)C(=O)N[C@@H](CO)C(=O)NCC(=O)N[C@@H](C)C(=O)N1CCC[C@H]1C(=O)N1CCC[C@H]1C(=O)N1CCC[C@H]1C(=O)N[C@@H](CO)C(=O)O (some centres undefined) (H-HGEGTYTNDVTEYLEEEAAK([γGlu-X1])EFIEWLIKGKPSSGAPPPS-OH)
- Tmax [1]: 4 h
- Activity (Mus musculus [2]): Active
- Activity (Mus musculus [3]): Active
- half-life [4]: 7 h
- Activity (Mus musculus [5]): Active
- Activity (Mus musculus [6]): Active
- Activity (Mus musculus [7]): Active
- Activity [8]: 48.3%
- Activity [9]: Non-Toxic
- Activity (Mus musculus [10]): Active
- Activity (Mus musculus [11]): Active
- Activity (Mus musculus [12]): Active
- Activity (Mus musculus [13]): 29.8%
- Activity (Mus musculus [14]): 15.4%
- Activity (Mus musculus [15]): Active
- Activity [16]: Non-Toxic
- Activity (Mus musculus [17]): Active
- K (Albumin): 13.3
- Activity (Mus musculus [18]): Active
- Activity (Mus musculus [19]): Dose-dependent effect
- Activity [20]: Non-Toxic
- EC50 [21]: 0.17 nM
- Activity (Mus musculus [22]): Active
- Activity (Mus musculus [23]): Active
- Activity [24]: Non-Toxic
- Activity (Mus musculus [25]): Active
- Activity (Mus musculus [26]): Active
- Activity (Mus musculus [27]): Active
- Activity (Mus musculus [28]): Active
- Activity (Mus musculus [29]): inactive
- Activity (Mus musculus [30]): inactive
- half-life at 1000 ng/ml [31]: 37.6 h
- Time (Mus musculus [32]): 24 h
- Time (Mus musculus [33]): 84 days
- Activity (Mus musculus [34]): Active
- Activity (Mus musculus [35]): 4.5%
- Activity (Mus musculus [36]): Active
- Activity (Mus musculus [37]): Active
- Activity (Mus musculus [38]): Dose-dependent effect
